{"source": "patent US12129488B2", "about": "“Production of brown adipocytes” (SOCIETE DES PRODUITS NESTLE S.A., priority 2018, dated 2024)", "key": {"[1]": {"tested_on": "human brown adipocytes (hiPSC derived BA cells)", "test": "PET-SCAN imaging of labelled glucose in explanted devices from mice implanted with encapsulated human brown adipocytes", "assay_type": "in vivo", "details": "mice implanted with brown adipocytes and injected with FSK vs not stimulated; three weeks post-implantation", "procedure": "Two groups of mice were implanted with human brown adipocytes (hiPSC derived BA cells) produced by the methods of the present invention and encapsulated in a device subcutaneously. In one group, the mice were injected with forskolin (FSK) to stimulate the brown adipocytes. In the other group, the mice implanted with brown adipocytes were not stimulated by FSK. A control group of mice was implanted with an empty device. All groups were assessed after three weeks post-implantation for in vivo PET-SCAN imaging as well as ex vivo PET-SCAN imaging of the explanted device."}, "paraxial mesoderm cells": {"tested_on": "paraxial mesoderm cells", "test": "Brown adipocyte differentiation of dissociated paraxial mesoderm cells in BAD1/BAD2 medium", "assay_type": "cell-based, human", "details": "SB431542 included in BAD1 medium, 2D culture of dissociated paraxial mesoderm cells", "procedure": "Proceeding from monolayer of pluripotent stem cells (PSC) to spherical culture (Sph) to primitive streak (PS) to paraxial mesoderm (PM). Cells are then dissociated and cultured in 2D in specific BAD1 medium that contains TGFβ signalling inhibitor, SB431542 which is an activin inhibitor. […] In a second step, cells are cultured in BAD2 medium allowing TGFβ signalling to be active as SB431542 is removed.\n(§1) Brown adipocyte (BA) differentiation was accomplished using two sequential media formulations designated BAD1 and BAD2. BAs were derived by first dissociating the PM spheres into single-cell suspension. Briefly, PM spheres were removed from the suspension plates and allowed to gravity sediment in a conical tube. The medium was aspirated carefully and the spheres gently washed once with excess DPBS without calcium or magnesium. The spheres were allowed to settle and the DPBS aspirated. The spheres were resuspended in 5 mL of RT Accumax® (Innovative Cell Technologies, San Diego, CA) and placed on a single speed rotating mixer for 20-30 minutes until a single-cell suspension was achieved. The cells were subsequently filtered through a 100 μm filter (ThermoFisher, Waltham, MA) into a 50 mL conical tube, washed with DPBS and centrifuged at 200 g for 4 minutes at RT; the resulting supernatant was aspirated and the cells resuspended in BAD1 medium for counting using a haemocytometer. […]"}, "UCP1": {"tested_on": "UCP1", "test": "UCP1 expression analysis (qPCR), long term versus short term SB431542 exposure during BA differentiation", "assay_type": "cell-based, human", "details": "continued use of SB431542 instead of removal in BAD2 medium", "procedure": "UCP1 expression analysis between long term (+SB) or short term (−SB) SB431542 exposure. Long term SB exposure includes SB431542 in the medium during the entire BA differentiation beginning immediately after plating dissociated paraxial mesoderm cells. Short term SB exposure includes SB431542 in the medium during only the first 8 days beginning immediately after plating dissociated paraxial mesoderm cells. Those samples marked “+FSK” received 10 μM Forskolin for 4 hours. Day numbers are the number of days after paraxial mesoderm differentiation. All samples are relative to iPSC using 18S rRNA as the endogenous control.\nas §1, with “achieved.” for “achieved. The cells were subsequently filtered through a 100 μm filter (ThermoFisher, Waltham, MA) into a 50 mL conical tube, washed with DPBS and centrifuged at 200 g for 4 minutes at RT; the resulting supernatant was aspirated and the cells resuspended in BAD1 medium for counting using a haemocytometer.”"}, "[2]": {"tested_on": "human BA cells (hiPSC derived brown adipocytes)", "test": "Calorimetric/respiration measurements in mice implanted with human BA cells after NE stimulation", "assay_type": "in vivo", "details": "implanted with human BA cells vs empty devices, one week post-implantation", "description": "Measures of respiration quotient (DeltaVO2) of mice implanted with human BA cells (IBAT) or empty devices (EMPTY) treated with Norepinephrine (NE) for 1 hour. The mice are either surgically depleted for endogenous murine BA tissue (BATr) or treated at thermo-neutrality to inactivate the endogenous murine BA tissue (Therm). Calorimetric analyses were performed on group of mice implanted with encapsulated human brown adipocytes or empty devices. One group of mice was depleted of endogenous murine BA tissue by surgery and another group was maintained at thermoneutrality for inactivation of the endogenous murine BA tissue. The two groups were implanted with either human BA cells (hiPSC derived brown adipocytes) or empty devices. After one week post-implantation, each group of mice was stimulated with Norepinephrine (NE) (BA stimulation) to assess uncoupled respiration increase. The four sub-groups were analysed for calorimetry measurements as a readout of the respiration index induced by human brown adipocytes."}}, "data": [{"smiles": "C=C[C@@]1(C)CC(=O)[C@]2(O)[C@@]3(C)[C@@H](O)CCC(C)(C)[C@@H]3[C@H](O)[C@H](OC(C)=O)[C@@]2(C)O1", "note": "[FSK, forskolin]", "values": [{"measurement": "signal of labelled glucose, PET-SCAN imaging ex vivo", "setting": "[1]", "result": "increased signal of labelled glucose"}]}, {"smiles": "NC(=O)c1ccc(-c2nc(-c3ccc4c(c3)OCO4)c(-c3ccccn3)[nH]2)cc1", "note": "[SB431542]", "values": [{"measurement": "appearance of vascular endothelium and cardiac myocyte development from contaminating lateral plate mesoderm", "setting": "paraxial mesoderm cells", "result": "reduces appearance of vascular endothelium and cardiac myocyte development"}, {"measurement": "kinetics of differentiation and UCP1 induction and expression", "setting": "UCP1", "result": "retards proper kinetics and perturbs proper UCP1 induction and expression"}]}, {"smiles": "NC[C@H](O)c1ccc(O)c(O)c1", "note": "[NE, Norepinephrine]", "values": [{"measurement": "respiration index (calorimetry)", "setting": "[2]; mice at thermoneutrality", "result": "slightly but not significantly improved"}, {"measurement": "respiration index (calorimetry)", "setting": "[2]; mice surgically depleted of endogenous murine BA tissue", "result": "significant increased respiration index"}]}]}
